{"source": "patent US20130209515A1", "about": "“ANTI-INFECTIVE AND IMMUNOMODULATORY COMPOUNDS” (priority 2005, published 2013)", "key": {"[1]": {"tested_on": "4-hydroxy-2-alkylquinoline (HAQ) production", "assay_type": "cell-based, Pseudomonas aeruginosa"}, "[2]": {"tested_on": "P. aeruginosa PA14", "assay": "Mouse burn and infection (BI) model, survival", "assay_type": "in vivo, mice", "description": "Burn wound infection in mice can be established by subcutaneous or topical administration of the bacteria to the sites of the burn. […] Six-week old CD-1 male mice were used.\nTo induce infection, the mice were placed under general anesthesia via intraperitonial injection of 40 mg/kg Pentobarbital, the ventral surface was shaved, and a central skin fold elevated was simultaneously compressed from both sides for 5 seconds using two 2×2 cm metal blocks preheated to 95-100° C., to produce a non-lethal 5-8% full thickness burn with negligible focal necrosis of the underlying muscle or damage to underlying visceral organs. IP saline was administered for fluid resuscitation for ≧5% total body surface burns: avoiding vital structures, saline was injected into the left lower quadrant of the abdominal area of the anesthetized animal post-burn. This burn procedure was followed by mid-eschar inoculation of 100 μL of bacterial suspension containing ˜5×10^5 CFU. The animals were returned to their cages and provided mouse chow and water ad libitum. Animals typically recover from the anesthesia within 20 minutes post-administration. Criteria used to evaluate anesthesia recovery are state of alertness, mobility, and reaction to surrounding stimuli. Mice were monitored twice a day for symptoms and deaths, with increased monitoring every 6-8 hours during the period of greatest potential for infection and clinical disease.\nThe mouse full-thickness skin thermal injury infection model was used to test if 2AA restricts P, aeruginosa virulence. This model is predictable and reproducible; clinically relevant; and can lead to MODS and mortality. Briefly, a ˜15% total burn surface area (TBSA) thermal scalding injury is produced on the abdominal skin, leaving the underlying muscle intact, and the inoculum is delivered into the scald eschar. […]"}, "[3]": {"tested_on": "PA14", "assay": "Neonatal mouse lung infection model, lung histopathology", "assay_type": "in vivo, mice", "description": "We next assessed the morphological dynamics of PA14 infection in the presence of 2AA in a neonatal mouse lung infection model (Tang et al., Infection & Immunity 64:37-43, 1996), which is relevant to CF. A minimum inoculum of 1.5×10^5 PA14 cells/animal is 100% lethal in this model. Mice were treated with 2AA 4 days pre-infection, sacrificed at 24, 48, and 72 hr post-infection, and lung histopathology was assessed and compared to that of controls. PA14 infection alone produces rapidly developing inflammation that by 24 hr presents with red hepatization and development of lobular pneumonia. By 48 hours, the lung pathology includes most of the parenchyma with extensive formation of bacteria-filled necrotic foci (FIG. 12B). These observations are also consistent with our previous mortality studies using this lung model that indicate 100% mortality by 60 hr."}}, "data": [{"smiles": "CC(=O)c1ccccc1N", "note": "[2AA, 2′-aminoacetophenone]", "values": [{"measurement": "HHQ production", "setting": "[1]", "result": "no HHQ was produced"}, {"measurement": "HQNO accumulation", "setting": "[1]", "result": "higher accumulation of HQNO"}, {"measurement": "PQS production", "setting": "[1]", "result": "only a limited quantity of PQS was produced"}, {"measurement": "production of 3,4-dihydroxy-2-heptylquinoline (PQS)", "setting": "[1]", "result": "decreased"}, {"measurement": "production of 4-hydroxy-2-heptylquinoline (HHQ)", "setting": "[1]", "result": "decreased"}, {"measurement": "production of 4-hydroxy-2-heptylquinoline N-oxide (HQNO)", "setting": "[1]", "result": "enhanced"}, {"measurement": "protection (survival curves)", "setting": "[2]; 10 mM solutions IV 4 days pre-BI (FIGS. 11A, 11B)", "result": "significantly greater"}, {"measurement": "time to succumb to PA14 lethality", "setting": "[2]; 2AA injected in the scald eschar 1 hr post BI (FIG. 7)", "result": "significantly later"}, {"measurement": "survival", "setting": "[2]; IP 2AA injection 3 days pre-BI", "result": 50, "unit": "%"}, {"measurement": "survival", "setting": "[2]; IP 2AA injection 8 days pre-BI", "result": 50, "unit": "%"}, {"measurement": "mortality", "setting": "[2]; IP 2AA injection up to 4 weeks pre-BI", "result": 50, "unit": "%"}, {"measurement": "mortality", "setting": "[2]; IP 500 μl of 20 mM, 2 days pre-BI, controls ~90%", "result": 60, "unit": "%"}, {"measurement": "survival to PA14 infection", "setting": "[2]; IV 100 μl of 10 mM, 4 days pre-BI", "result": "~90", "unit": "%"}, {"measurement": "average survival after 5 days", "setting": "[2]; IV tail vein 100 μl of 10 mM, four days prior to burn/infection, n=8-10, control 10% (FIG. 9)", "result": 50, "unit": "%"}, {"measurement": "protection (survival)", "setting": "[2]; single IP injection 500 μl of 20 mM, 6 hours pre-BI", "result": "no protection"}, {"measurement": "development of lung inflammation in response to PA14 infection", "setting": "[3]; 2AA 4 days pre-infection", "result": "greatly delayed rates of development of inflammation"}, {"measurement": "lung histopathology", "setting": "[3]; PA14 infection 4 days post-2AA treatment, 48 hours (FIG. 12C)", "result": "Slight peribronchial infiltrate of inflammatory cells is present at 48 hours but no significant interstitial involvement"}]}]}
